# Measurements as given in patent US11040981B2, “Pyrrolotriazine compounds and methods of inhibiting TAM kinases” (Syros Pharmaceuticals, Inc., priority 2017, dated 2021).
# Assays:
# [1] = molecular target: T1, MERTK (Homo sapiens, UniProt Q12866); experiment: TR-FRET kinase activity assay, MERTK; assay type: biochemical; details: for IC50: TR-FRET activity assay, ATP at Km, 60 minutes, read-out: Mer IC50
# T1 sequence (Q12866 21-999): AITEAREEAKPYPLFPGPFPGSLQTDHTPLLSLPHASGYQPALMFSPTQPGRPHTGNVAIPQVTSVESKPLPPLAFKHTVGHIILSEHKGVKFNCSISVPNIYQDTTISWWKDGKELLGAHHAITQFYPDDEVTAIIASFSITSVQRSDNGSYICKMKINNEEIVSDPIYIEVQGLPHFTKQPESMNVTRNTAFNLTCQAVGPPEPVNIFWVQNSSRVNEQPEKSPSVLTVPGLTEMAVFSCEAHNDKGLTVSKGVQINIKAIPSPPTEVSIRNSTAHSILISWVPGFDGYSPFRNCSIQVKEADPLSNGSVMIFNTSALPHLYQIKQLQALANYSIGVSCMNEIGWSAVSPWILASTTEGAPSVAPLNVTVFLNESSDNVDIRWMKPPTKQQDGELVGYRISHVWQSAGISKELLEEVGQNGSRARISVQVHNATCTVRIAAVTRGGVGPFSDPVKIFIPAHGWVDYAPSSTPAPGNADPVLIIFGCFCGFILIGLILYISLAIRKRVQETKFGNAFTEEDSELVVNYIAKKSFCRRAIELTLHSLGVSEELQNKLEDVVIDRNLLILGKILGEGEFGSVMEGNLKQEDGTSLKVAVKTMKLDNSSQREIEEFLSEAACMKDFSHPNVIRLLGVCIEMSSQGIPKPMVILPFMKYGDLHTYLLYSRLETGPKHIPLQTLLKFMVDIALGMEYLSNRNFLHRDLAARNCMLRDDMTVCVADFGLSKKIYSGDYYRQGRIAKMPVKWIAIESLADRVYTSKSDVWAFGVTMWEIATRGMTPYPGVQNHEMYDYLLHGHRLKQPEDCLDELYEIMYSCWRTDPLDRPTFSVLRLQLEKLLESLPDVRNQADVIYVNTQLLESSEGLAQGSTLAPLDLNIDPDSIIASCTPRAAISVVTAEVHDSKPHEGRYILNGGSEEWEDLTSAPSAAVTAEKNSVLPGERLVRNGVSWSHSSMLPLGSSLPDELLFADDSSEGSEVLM
# In short: (§1)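 Recombinant human kinases, fluorescent peptide substrate, ATP at Km; 1 h RT, pH 7.5. EDTA-quenched, Eu antibody added, TR-FRET read; IC50 determined.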
# [2] = molecular target: T2, TYRO3 (Homo sapiens, UniProt Q06418); experiment: TR-FRET kinase activity assay, TYRO3; assay type: biochemical; details: ATP at Km, 60 minutes
# T2 sequence (Q06418 41-890): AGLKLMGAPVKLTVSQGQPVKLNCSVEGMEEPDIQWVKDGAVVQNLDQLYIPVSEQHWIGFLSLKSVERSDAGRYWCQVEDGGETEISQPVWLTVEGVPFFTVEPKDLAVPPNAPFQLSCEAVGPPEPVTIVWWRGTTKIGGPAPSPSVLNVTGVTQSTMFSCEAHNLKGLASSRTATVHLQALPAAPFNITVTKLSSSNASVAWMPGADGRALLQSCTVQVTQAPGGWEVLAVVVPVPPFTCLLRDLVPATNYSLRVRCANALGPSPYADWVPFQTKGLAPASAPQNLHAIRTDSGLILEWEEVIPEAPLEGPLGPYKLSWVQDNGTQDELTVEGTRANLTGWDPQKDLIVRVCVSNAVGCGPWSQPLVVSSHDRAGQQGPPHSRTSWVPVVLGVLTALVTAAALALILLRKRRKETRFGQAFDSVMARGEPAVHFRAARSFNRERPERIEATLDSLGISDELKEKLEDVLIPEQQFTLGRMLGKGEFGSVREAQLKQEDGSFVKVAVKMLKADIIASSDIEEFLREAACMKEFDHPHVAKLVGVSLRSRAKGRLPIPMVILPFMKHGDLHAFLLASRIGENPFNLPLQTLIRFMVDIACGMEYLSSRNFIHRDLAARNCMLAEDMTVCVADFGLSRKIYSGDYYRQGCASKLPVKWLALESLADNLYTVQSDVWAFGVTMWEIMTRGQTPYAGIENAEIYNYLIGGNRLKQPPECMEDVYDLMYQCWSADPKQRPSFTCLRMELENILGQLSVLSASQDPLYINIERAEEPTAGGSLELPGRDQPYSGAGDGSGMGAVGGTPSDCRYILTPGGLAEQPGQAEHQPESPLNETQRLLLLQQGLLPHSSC
# In short: as §1
# [3] = ratio calculated as FLT3 IC50/Mer IC50
# [4] = ratio of Mer to FLT3: FLT3 IC50/Mer IC50
SMILES,IC50 [1],"FLT3/Mer ratio (FLT3 IC50/Mer IC50) [1, 3]",IC50 [2],"FLT3/Mer ratio (FLT3 IC50/Mer IC50) [1, 4]"
COC[C@H](C)Nc1ncc2c(C3=C[C@@H]4CC[C@H](C3)N4)cc([C@H]3CC[C@H](O)CC3)n2n1 [Compound 461],≤ 100 nM,+++ (“+++” represents a ratio of >100),≤ 100 nM,–
COC[C@H](C)Nc1ncc2c(-c3ccnc(NC4CCOCC4)c3)cc([C@H]3CC[C@H](O)CC3)n2n1 [Compound 431],≤ 100 nM,+++ (“+++” represents a ratio of >100),≤ 100 nM,–
COC[C@H](C)Nc1ncc2c(-c3ccnc(N4CCOC4=O)c3)cc([C@H]3CC[C@H](O)CC3)n2n1 [Compound 438],≤ 100 nM,+++ (“+++” represents a ratio of >100),≤ 100 nM,–
COC[C@H](C)Nc1ncc2c(C3=C[C@H]4CC[C@@H](C3)N4C)cc([C@H]3CC[C@H](O)CC3)n2n1 [Compound 494],≤ 100 nM,+++ (“+++” represents a ratio of >100),≤ 100 nM,–
C[C@H](CC(F)(F)F)Nc1ncc2c(C3=C[C@H]4CC[C@@H](C3)N4C(=O)OC(C)(C)C)cc([C@H]3CC[C@H](O)CC3)n2n1 [Compound 456],≤ 100 nM,+++ (“+++” represents a ratio of >100),≤ 100 nM,–
CC[C@H](C)Nc1ncc2c(C3=CCOCC3)cc([C@H]3CC[C@H](O)CC3)n2n1 [Compound 128],≤ 100 nM,–,≤ 100 nM,++ (“++” represents a ratio of between 10 and 100)
COC[C@H](C)Nc1ncc2c(C3=C[C@H]4CCC(C3)N4C(C)=O)cc([C@H]3CC[C@H](O)CC3)n2n1 [Compound 468],≤ 100 nM,+++ (“+++” represents a ratio of >100),≤ 100 nM,–
CCCCC[C@H](C)Nc1ncc2c([C@H]3CC[C@@H](C(=O)N4CCN(C)CC4)CC3)cc([C@H]3CC[C@H](O)CC3)n2n1 [Compound 127],≤ 100 nM,–,≤ 100 nM,+++ (“+++” represents a ratio of >100)
COC[C@H](C)Nc1ncc2c(-c3cnn(C(C)(C)C(=O)N4CCC(C)(C#N)CC4)c3)cc([C@H]3CC[C@H](O)CC3)n2n1 [Compound 451],≤ 100 nM,+++ (“+++” represents a ratio of >100),≤ 100 nM,–
COC[C@H](C)Nc1ncc2c(C#CC(C)(C)C(=O)N3CCOCC3)cc([C@H]3CC[C@H](O)CC3)n2n1 [Compound 449],≤ 100 nM,+++ (“+++” represents a ratio of >100),≤ 100 nM,–
COC[C@H](C)Nc1ncc2c(C3=C[C@@H]4CC[C@H](C3)N4C(=O)N3CCOCC3)cc([C@H]3CC[C@H](O)CC3)n2n1 [Compound 463],≤ 100 nM,+++ (“+++” represents a ratio of >100),≤ 100 nM,–
COC[C@H](C)Nc1ncc2c(-c3ccnc(N4C[C@H]5CC[C@@H](C4)O5)c3)cc([C@H]3CC[C@H](O)CC3)n2n1 [Compound 445],≤ 100 nM,+++ (“+++” represents a ratio of >100),≤ 100 nM,–
COC[C@H](C)Nc1ncc2c(C3=C[C@@H]4CC[C@H](C3)N4CC(F)(F)F)cc([C@H]3CC[C@H](O)CC3)n2n1 [Compound 485],≤ 100 nM,+++ (“+++” represents a ratio of >100),≤ 100 nM,–
CCC1(Nc2ncc3c(-c4ccc(CN5CCN(C)CC5)cc4)cc([C@H]4CC[C@H](O)CC4)n3n2)CCC1 [Compound 126],≤ 100 nM,–,100 to 1000 nM,++ (“++” represents a ratio of between 10 and 100)

# The next lines start with results.
IC50 [1],"FLT3/Mer ratio (FLT3 IC50/Mer IC50) [1, 3]",IC50 [2],SMILES,"FLT3/Mer ratio (FLT3 IC50/Mer IC50) [1, 4]"
≤ 100 nM,+++ (“+++” represents a ratio of >100),≤ 100 nM,COC[C@H](C)Nc1ncc2c(-c3cnn([C@@H]4CCN(C)C4=O)c3)cc([C@H]3CC[C@H](O)CC3)n2n1 [Compound 471],–
≤ 100 nM,+++ (“+++” represents a ratio of >100),≤ 100 nM,COC[C@H](C)Nc1ncc2c(-c3ccc(C(C)(C)C(=O)N4CCOCC4)s3)cc([C@H]3CC[C@H](O)CC3)n2n1 [Compound 460],–
≤ 100 nM,+++ (“+++” represents a ratio of >100),≤ 100 nM,COC[C@H](C)Nc1ncc2c(-c3cnn([C@H]4CCN(C)C4=O)c3)cc([C@H]3CC[C@H](O)CC3)n2n1 [Compound 470],–
≤ 100 nM,+++ (“+++” represents a ratio of >100),≤ 100 nM,COC[C@H](C)Nc1ncc2c(-c3cccc(N4C[C@H]5COC[C@H]5C4)c3)cc([C@H]3CC[C@H](O)CC3)n2n1 [Compound 464],–
≤ 100 nM,+++ (“+++” represents a ratio of >100),≤ 100 nM,COC[C@H](C)Nc1ncc2c(-c3cnn(C(C)(C)C(=O)C4CCc5sc(C)nc5C4)c3)cc([C@H]3CC[C@H](O)CC3)n2n1 (stereo partly drawn) [Compound 496],–
≤ 100 nM,+++ (“+++” represents a ratio of >100),≤ 100 nM,"COC[C@H](C)Nc1ncc2c(-c3cnn(C4COC4)c3)cc([C@H]3CC[C@@](C)(O)CC3)n2n1 (single isomer, unassigned) [Compound 453]",–
≤ 100 nM,+++ (“+++” represents a ratio of >100),≤ 100 nM,COC[C@H](C)Nc1ncc2c(-c3ccnc(N4CCN(C5COC5)CC4)c3)cc([C@H]3CC[C@H](O)CC3)n2n1 [Compound 486],–
≤ 100 nM,+++ (“+++” represents a ratio of >100),≤ 100 nM,COC[C@H](C)Nc1ncc2c(-c3ccnc(N4CCC5(COC5)C4)c3)cc([C@H]3CC[C@H](O)CC3)n2n1 [Compound 493],–
≤ 100 nM,+++ (“+++” represents a ratio of >100),≤ 100 nM,COC[C@H](C)Nc1ncc2c(-c3cnn(CC(C)(C)N4CCOCC4)c3)cc([C@H]3CC[C@H](O)CC3)n2n1 [Compound 507],–
